Data: ChEMBL document CHEMBL1129159, “Inhibition of protein phosphatase 2A by cyclic peptides modelled on the microcystin ring” (Bioorg Med Chem Lett, 1996)
Numbered stars: 1 amine (or outer) side, 2 acyl side, 3 side chain; on linkers, the order of the positions; unused ones are H or OH. Bridge positions count the residues as written; N and C are the ends. Square brackets hold non-standard residues; d marks the D form. Peptide text beside a SMILES is read from it. Adda = CO[C@@H](Cc1ccccc1)[C@@H](C)/C=C(C)/C=C/[C@H](N[*:1])[C@H](C)C(=O)[*:2]; dAsp(3S-Me) = C[C@H](C(=O)[*:3])[C@@H](N[*:1])C(=O)[*:2]; d(γGlu) = O=C(O)[C@@H](CCC(=O)[*:2])N[*:1]; NMeDha = C=C(NC)C(=O)O

Assay: Compound was tested for inhibition of protein phosphatase 2A (PP2A).
Compound `CC(C)C[C@H]1NC(=O)[C@H](C)NC(=O)[C@@H](CC(=O)O)NC(=O)CCCNC(=O)[C@@H](CS)NC(=O)[C@@H](C)NC(=O)C[C@@H](C(=O)O)NC1=O` has an IC50 of 10 mM.
Work on `C=C1C(=O)N[C@H](C)C(=O)N[C@@H](CC(C)C)C(=O)N[C@@H](C(=O)O)[C@H](C)C(=O)N[C@@H](CCCNC(=N)N)C(=O)N[C@@H](/C=C/C(C)=C/[C@H](C)[C@H](Cc2ccccc2)OC)[C@H](C)C(=O)N[C@@H](C(=O)O)CCC(=O)N1C` [MICROCYSTIN-LR] (R[Adda][d(γGlu)][NMeDha][dA]L[dAsp(3S-Me)]-OH; lactam N-7) yielded an IC50 of 0.2 mM.
Work on `C[C@H](NC(=O)[C@@H](CC(=O)O)NC(=O)[C@H](C)NC(=O)[C@@H](CCC(=O)O)NC(=O)CCN)C(=O)O` yielded an IC50 of 10 mM.
In the case of `CC(C)C[C@@H]1NC(=O)[C@@H](C)NC(=O)[C@H](CC(=O)O)NC(=O)[C@@H](CCC(=O)O)NC(=O)[C@H](CS)NC(=O)[C@H](C)NC(=O)[C@@H](CC(=O)O)NC1=O`, the IC50 is reported as 0.5 mM.

Assay: Percentage inhibition of murine protein phosphatase 2A at 1 mM.
With `CC(C)C[C@H]1NC(=O)[C@H](C)NC(=O)[C@@H](CC(=O)O)NC(=O)CCCNC(=O)CCNC(=O)[C@@H](C)NC(=O)C[C@@H](C(=O)O)NC1=O` the inhibition was 42%.
With `CC(C)C[C@H](NC(=O)[C@@H](C)N)C(=O)N[C@H](CC(=O)O)C(=O)N[C@@H](C)C(=O)NCCC(=O)N[C@H](CCC(=O)O)C(=O)N[C@@H](CC(=O)O)C(N)=O` the inhibition was 1%.
`CC(C)C[C@H](NC(=O)[C@@H](C)NC(=O)[C@H](C)NC(=O)[C@@H](CCC(=O)O)NC(=O)CCN)C(=O)N[C@H](CC(=O)O)C(=O)N[C@@H](C)C(=O)O` showed an inhibition of 16%.
For `CC(C)C[C@H](NC(=O)[C@@H](C)N)C(=O)NCCC(=O)N[C@@H](C)C(=O)N[C@H](CC(=O)O)C(=O)N[C@H](CCC(=O)O)C(=O)N[C@@H](C)C(=O)O`, the inhibition was 14%.
`CC(C)C[C@H]1NC(=O)[C@H](C)NC(=O)[C@@H](CC(=O)O)NC(=O)CCCNC(=O)[C@@H](CS)NC(=O)[C@@H](C)NC(=O)C[C@@H](C(=O)O)NC1=O` gave an inhibition of 45%.
`CC(C)C[C@H](NC(=O)[C@@H](C)N)C(=O)N[C@H](CC(=O)O)C(=O)N[C@@H](C)C(=O)N[C@@H](CC(=O)O)C(=O)N[C@H](CCC(=O)O)C(=O)N[C@@H](C)C(=O)O` gave an inhibition of 11%.
Compound `CC(C)C[C@H](NC(=O)[C@@H](C)N)C(=O)N[C@@H](CC(=O)N[C@@H](C)C(=O)N[C@@H](CS)C(=O)N[C@H](CCC(=O)N[C@@H](CC(=O)O)C(N)=O)C(=O)O)C(=O)O` has an inhibition of 18%.
Work on `CC(C)C[C@H](NC(=O)[C@@H](C)NC(=O)[C@H](C)NC(=O)CC[C@@H](NC(=O)[C@@H](N)CS)C(=O)O)C(=O)N[C@H](CC(=O)N[C@@H](C)C(=O)O)C(=O)O` yielded an inhibition of 19%.
For `C[C@H](NC(=O)C[C@H](NC(=O)[C@H](C)NC(=O)CC[C@@H](NC(=O)CCN)C(=O)O)C(=O)O)C(=O)O`, the inhibition was 19%.
`CC(C)C[C@H](NC(=O)[C@@H](C)NC(=O)[C@H](C)NC(=O)CC[C@@H](NC(=O)CCN)C(=O)O)C(=O)N[C@H](CC(=O)N[C@@H](C)C(=O)O)C(=O)O` gave an inhibition of 15%.
`CC(C)C[C@H](NC(=O)[C@@H](C)N)C(=O)N[C@H](CC(=O)O)C(=O)N[C@@H](C)C(=O)N[C@@H](CS)C(=O)N[C@H](CCC(=O)O)C(=O)N[C@@H](CC(=O)O)C(N)=O` showed an inhibition of 17%.
`C[C@H](NC(=O)[C@@H](CC(=O)O)NC(=O)[C@H](C)NC(=O)[C@@H](CCC(=O)O)NC(=O)CCN)C(=O)O` showed an inhibition of 30%.
In the case of `CC(C)C[C@H](NC(=O)[C@@H](C)N)C(=O)NCCC(=O)N[C@@H](C)C(=O)N[C@@H](CC(=O)O)C(=O)N[C@@H](CCC(=O)N[C@@H](C)C(=O)O)C(=O)O`, the inhibition is reported as 12%.
For `CC(C)C[C@H](NC(=O)[C@@H](C)N)C(=O)N[C@@H](CC(=O)N[C@@H](C)C(=O)NCCC(=O)N[C@H](CCC(=O)N[C@@H](C)C(=O)O)C(=O)O)C(=O)O`, the inhibition was 12%.
Compound `CC(C)C[C@H]1NC(=O)[C@H](C)NC(=O)[C@@H](CC(=O)O)NC(=O)[C@H](CCC(=O)O)NC(=O)CCNC(=O)[C@@H](C)NC(=O)[C@H](CC(=O)O)NC1=O` has an inhibition of 21%.
In the case of `CC(C)C[C@H]1NC(=O)[C@H](C)NC(=O)[C@@H](C)NC(=O)CC[C@@H](C(=O)O)NC(=O)CCNC(=O)[C@@H](C)NC(=O)C[C@@H](C(=O)O)NC1=O`, the inhibition is reported as 3%.
Compound `CC(C)C[C@H](NC(=O)[C@@H](C)N)C(=O)N[C@@H](CC(=O)N[C@@H](C)C(=O)N[C@@H](CC(=O)O)C(=O)N[C@H](CCC(=O)N[C@@H](C)C(=O)O)C(=O)O)C(=O)O` has an inhibition of 21%.
`CC(C)C[C@H](NC(=O)[C@@H](C)N)C(=O)N[C@@H](CC(=O)N[C@@H](C)C(=O)N[C@@H](C)C(=O)N[C@@H](CCC(=O)N[C@@H](C)C(=O)O)C(=O)O)C(=O)O` gave an inhibition of 22%.
Compound `CC(C)C[C@H](NC(=O)[C@@H](C)NC(=O)[C@H](C)NC(=O)[C@@H](CCC(=O)O)NC(=O)[C@@H](N)CS)C(=O)N[C@H](CC(=O)O)C(=O)N[C@@H](C)C(=O)O` has an inhibition of 22%.
Work on `CC(C)C[C@@H]1NC(=O)[C@@H](C)NC(=O)[C@H](CC(=O)O)NC(=O)[C@@H](CCC(=O)O)NC(=O)[C@H](CS)NC(=O)[C@H](C)NC(=O)[C@@H](CC(=O)O)NC1=O` yielded an inhibition of 86%.
Compound `CC(C)C[C@H](NC(=O)[C@@H](C)N)C(=O)N[C@@H](CC(=O)N[C@@H](C)C(=O)NCCC(=O)N[C@H](CCC(=O)N[C@@H](CC(=O)O)C(N)=O)C(=O)O)C(=O)O` has an inhibition of 11%.
